# US20240148686A1, “PHARMACEUTICAL COMPOSITION OF FORSKOLIN-ISOFORSKOLIN AND PENTACYCLIC TRITERPENOID COMPOUND, AND APPLICATION THEREOF” (CHINA PHARMACEUTICAL UNIVERSITY, priority 2021, published 2024)
# Marks after values point to notes of the source that are not given here.
# Legend:
# [1] = test system: chronic liver fibrosis model mice induced by CCl4; assay: Therapeutic effects on chronic liver fibrosis model induced by CCl4; type: in vivo, C57BL/6 mice; conditions: total 20 mg/kg intragastric once a day for 8 weeks, x±s
# Method: (§1) Notes: Statistical analysis is conducted by the GraphPad Prism 8.0 statistical software, and statistical analysis results are analyzed by t-Test. Compared with a model group, *P<0.05 indicates a statistically-significant difference between the groups: **P<0.01, […], and ****P<0.0001.
# 140 C57 mice were selected and evenly divided into 14 groups with 10 mice per group, including a model group (M group), a forskolin group (F group), an isoforskolin group (IF group), an asiatic acid group (AA group), an asiaticoside group (AS group), an OA group (OA group), a betulinic acid group (BA group), a forskolin+asiatic acid combined administration group (F+AA group), a forskolin+asiaticoside combined administration group (F+AS group), forskolin+OA combined administration groups (low, medium, and high) (F+OA-1:4, 1:1, and 4:1 groups), a forskolin+betulinic acid combined administration group (F+BA group), and an isoforskolin+OA combined administration group (IF+OA group). Every Thursday and Sunday, all mice each were intraperitoneally injected with a 5% carbon tetrachloride (CCl4)-containing olive oil solution continuously for 8 weeks at an injection volume of 20 mL/kg to obtain a liver fibrosis model caused by chronic liver damage.
# Administration mode: A drug was prepared with a 0.5% CMC-Na solution as a solvent into a suspension, and the suspension was intragastrically administered once a day continuously for 8 weeks.
# (§2) The mice were administered with a drug continuously for 8 weeks, and after the last administration, the mice were fasted without water deprivation for 12 h; a body weight of each mouse was measured, eyeballs were removed, blood was collected, and a liver was taken out and weighed; and a part of the liver tissue was stored in 4% PFA, and another part of the liver tissue was stored in liquid nitrogen.
# A blood sample was allowed to stand in a 4° C. refrigerator for 4 h and then centrifuged at 3,500 rpm for 10 min to 15 min; and a resulting supernatant was collected and tested by a kit to determine AST and ALT levels. The liver tissue stored in liquid nitrogen was homogenized and then centrifuged, and a resulting supernatant was collected and then tested by an enzyme-linked immunosorbent assay (ELISA) kit to determine a PCIII content. The liver tissue stored in 4% PFA was dehydrated, fixed, sectioned, and stained to obtain H&E-stained and Sirius red-stained slide specimens.
# [2] = test system: NAFLD model mice (obesity and fatty liver models induced by a high-fat diet); assay: Therapeutic effects on obesity and fatty liver (NAFLD) models induced by a high-fat diet; type: in vivo, C57 mice; conditions: for serum FFA content / serum TC content / hepatic TG content: fatty liver model mice, total 20 mg/kg intragastric once a day for 12 weeks, x±s; for serum FFA content / serum TC content: high-fat diet 12 weeks; for hepatic TG content: liver homogenate supernatant
# Method: as §1
# 160 SPF-grade male C57 mice at 8 weeks to 9 weeks were adaptively raised for one week, and then 140 obese mice with a consistent body weight were selected and evenly divided into 14 groups with 10 mice per group, including a model group (M group), a forskolin group (F group), an isoforskolin group (IF group), an asiatic acid group (AA group), an asiaticoside group (AS group), an OA group (OA group), a betulinic acid group (BA group), a forskolin+asiatic acid combined administration group (F+AA group), a forskolin+asiaticoside combined administration group (F+AS group), forskolin+OA combined administration groups (low, medium, and high) (F+OA-1:4, 1:1, and 4:1 groups), a forskolin+betulinic acid combined administration group (F+BA group), and an isoforskolin+OA combined administration group (IF+OA group). The mice were fed by a high-fat diet (including 35% of fat, 26% of carbohydrates, and 26% of proteins) continuously for 12 weeks to establish obesity and fatty liver models, and during the modeling, a drug was intragastrically administered continuously for 12 weeks. The experimental animals were raised in ordinary mouse cages in an environment with a room temperature of 24±2° C., a humidity of 40% to 60%, and a 12 h light/12 h dark cycle.
# Administration mode: A drug was prepared with a 0.5% CMC-Na solution as a solvent into a suspension, and the suspension was intragastrically administered once a day continuously for 12 weeks.
# as §2, with “12” for “8”, “weighed;” for “weighed; and”, “paraformaldehyde (PFA),” for “PFA,”, “liquid nitrogen; and inguinal fat was collected from a right thigh of each mouse, weighed, and stored in liquid” for “liquid”
# A blood sample was allowed to stand in a 4° C. refrigerator for 4 h and then centrifuged at 3,500 rpm for 10 min to 15 min; and a resulting supernatant was collected and tested by a blood bio-chemical analyzer to determine the FFA and TC levels in serum. The liver tissue stored in 4% PFA was frozen and sectioned, and then stained with oil red O to obtain slide specimens. The liver tissue stored in liquid nitrogen was homogenized and then centrifuged, and a resulting supernatant was collected and then tested by a kit to determine a TG content.
compound,measurement,setting,value
"C[C@H]1[C@H](C)CC[C@]2(C(=O)O)CC[C@]3(C)C(=CC[C@@H]4[C@@]5(C)C[C@@H](O)[C@H](O)[C@@](C)(CO)[C@@H]5CC[C@]43C)[C@H]12 [AA, Asiatic acid]",serum ALT content,[1],815 ± 53* U/L
same,serum AST content,[1],399 ± 22* U/L
same,serum FFA content,[2],1.286 ± 0.143 mmol/L
same,serum TC content,[2],7.26 ± 0.74 mmol/L
same,hepatic TG content,[2],1.17 ± 0.12 mmol/L
"C=C(C)[C@@H]1CC[C@]2(C(=O)O)CC[C@]3(C)[C@H](CC[C@@H]4[C@@]5(C)CC[C@H](O)C(C)(C)[C@@H]5CC[C@]43C)[C@@H]12 [BA, Betulinic acid]",serum ALT content,[1],849 ± 34 U/L
same,serum AST content,[1],422 ± 45* U/L
same,serum FFA content,[2],1.245 ± 0.201 mmol/L
same,serum TC content,[2],7.02 ± 0.63 mmol/L
same,hepatic TG content,[2],1.10 ± 0.08 mmol/L
"CC1(C)CC[C@]2(C(=O)O)CC[C@]3(C)C(=CC[C@@H]4[C@@]5(C)CC[C@H](O)C(C)(C)[C@@H]5CC[C@]43C)[C@@H]2C1 [OA, Oleanolic acid]",serum ALT content,[1],888 ± 53 U/L
same,serum AST content,[1],436 ± 51 U/L
same,serum FFA content,[2],1.182 ± 0.113* mmol/L
same,serum TC content,[2],6.84 ± 0.54* mmol/L
same,hepatic TG content,[2],1.03 ± 0.09* mmol/L
Asiaticoside,serum ALT content,[1],882 ± 25 U/L
same,serum AST content,[1],406 ± 63* U/L
same,serum FFA content,[2],1.238 ± 0.186* mmol/L
same,serum TC content,[2],7.09 ± 0.34 mmol/L
same,hepatic TG content,[2],1.18 ± 0.08 mmol/L
Forskolin,serum ALT content,[1],922 ± 32 U/L
same,serum AST content,[1],447 ± 31 U/L
same,"body weight increase (FIG. 1), in words","[2]; NAFLD model mice, total 20 mg/kg intragastric daily, 12 weeks",can inhibit the increase of a body weight of mice similarly
same,serum FFA content,[2],1.324 ± 0.124 mmol/L
same,serum TC content,[2],7.44 ± 0.86 mmol/L
same,hepatic TG content,[2],1.01 ± 0.07* mmol/L
